# Patent publication US20230190760A1, “ADVANTAGEOUS THERAPIES FOR DISORDERS MEDIATED BY IKAROS OR AIOLOS” (C4 Therapeutics, Inc., priority 2020, published 2023)
# Where two headings read alike, the source gives them in different places.
# Assays:
# [1] = system: mantel cell lymphoma (MCL) cell lines; experiment: Anti-cancer activity in MCL cell lines; type: cell-based; settings: four of six lines tested were responsive; read-out: mean IC50 among the responsive lines
# NHL cell lines = experiment: NHL cell line growth inhibition assay (CellTiter-Glo, 96 hr); type: cell-based; settings: variety of cancer assays (FIG. 45A-C, FIG. 52)
# [2] = system: 8 multiple myeloma cell lines; experiment: Growth of 8 multiple myeloma cell lines (CellTiter-Glo, 96 hour); type: cell-based
# [3] = system: Caspase 3/7 activity in NCIH929 multiple myeloma cells; experiment: Apoptosis induction, Caspase 3/7 activity in NCIH929 cells; type: cell-based
# Description: 30 μL NCIH929 cells were seeded into the 384-well plates in RPMI medium containing 10% FBS and 0.05 mM 2-mercaptoethanol at a cell density of 1000 cells per well. Cells treated in the absence of the test compound were the negative control. Following compound treatment, cells were incubated at 37° C. with 5% CO2 for 72 hr. 30 μL reconstituted Caspase 3/7 Assay detection reagent was added to each well and luminescence was acquired on EnVision™ Multilabel Reader (PerkinElmer, Santa Clara, Calif., USA).
# IKZF1 [4] = molecular target: T1, IKZF1 (Mus musculus, UniProt Q03267); experiment: Ex vivo IKZF1 degradation in PBMC, mouse; type: cell-based; settings: mouse cells
# T1 construct: from tissue; host or cells: peripheral blood cells (PBMC) of mice, ex vivo
# Description: IKZF1/3 are not degraded in mouse cells treated with thalidomide or its IMiD® analogs because of a single amino acid difference in mouse cereblon compared to human cereblon that causes steric hindrance and prevents recruitment of IKZF1/3. Ex vivo studies were performed in peripheral blood cells (PBMC) of mice, rats, dogs, and monkeys to identify relevant species for IND enabling-toxicity studies based on the degree of IKZF1 degradation by Compound 1. IKZF1 was not degraded in mouse or rat cells by Compound 1, thus, while rat could not be considered a pharmacologically relevant species for human risk assessment, it was chosen as the rodent species for toxicological studies because it is widely used in toxicity testing and a substantial historical toxicology database is available. […] Therefore, cynomolgus monkey was chosen for non-rodent toxicological studies.
# NCIH929.1 cells = experiment: NCIH929.1 cell viability assay (CellTiter-Glo, GI50); type: cell-based; settings: 96 hr
# [5] = system: REC1 mantle cell lymphoma tumors; experiment: REC1 mantle cell lymphoma xenograft, balb/c nude mice; type: in vivo
# Description: A xenograft study was conducted in female balb/c nude mice bearing REC1 mantle cell lymphoma tumors.
# (§1) Statistical analysis was performed using two-way analysis of variance (ANOVA). Data are expressed as MTV±SEM.
# TMD8 DLBCL tumors [6] = experiment: TMD8 DLBCL xenograft, NOD SCID mice; type: in vivo
# Description: A xenograft study was also conducted in female NOD SCID mice bearing TMD8 DLBCL tumors.
# as §1
# TMD8 DLBCL tumors [7] = settings: Compound 1 50 μg/kg, Ibrutinib 12500 μg/kg
# Description: A xenograft study was conducted in female CB17 SCID mice bearing TMD8 DLBCL tumors. Female SCID mice were inoculated subcutaneously in the right flank with 5×10^6 tumors cells in 0.2 mL of PBS supplemented with matrigel (PBS:matrigel=1:1). Tumor volume was measured twice weekly in two dimensions using calipers, and volume was calculated using the formula: (w2×l)/2=mm^3, assuming 1 mg is equivalent to 1 mm^3 of tumor volume. […] Treatment began on Day 0 with established subcutaneous TMD8 tumors with a mean tumor volume (MTV) of 107-108 mm^3.
# All agents were administered to mice bearing TMD8 tumors on day 0 and dosed PO daily until individual tumor volumes reached or exceeded 1500 mm^3, at which point dosing stopped and the individual mouse was removed from the study. Compound 1 was dosed at 50 μg/kg and was formulated in PEG400 (30% v/v)+70% v/v HPMC (1% w/v) in citrate buffer (pH 5). Ibrutinib was dosed at 12.5 mg/kg and formulated in 0.5% MC+0.4% cremophor EL+0.1% sodium lauryl sulfate. Compound 1 was also dosed in combination with Ibrutinib at their respective single agent doses. Body weight and MTV was measured on a 2× weekly schedule and the study end point was when all mice were removed from the study on day 54. Statistical analysis was performed using survival analysis and the Logrank test (Mantel-Cox test). Data are expressed as MTV±SEM.
# IKZF1 [8] = molecular target: T2, IKZF1 (Homo sapiens, UniProt Q13422+Q96SW2); experiment: Ikaros degradation in Ki-JK cells by flow cytometry; type: cell-based; set-up: host or cells: Ki-JK cells
# Description: Flow cytometry was used to assess the Ikaros degradation characteristics and evaluate the mechanism of Compound 1. […] The cells were prepared for staining using the FOXP3 Fix/Perm Buffer Set (BioLegend, 421403) according to the manufacturer's instructions at 1.5, 3, and 6 hours. IKZF1-AF488 (564867) and IgG1-488 (557782) (BD Biosciences) were diluted 1:100 in Perm Buffer. Signal was detected using the Guava® easyCyte™ Flow Cytometer. […] Degradation was not observed with the combination of Compound 1 and bortezomib or MLN-4924.
# TMD8 = experiment: Anti-proliferative activity, 96 hours; settings: Homo sapiens, TMD8, 96 h
# SU-DHL-2 = experiment: Anti-proliferative activity, 96 hours; settings: Homo sapiens, SU-DHL-2, 96 h
# DOHH-2 = experiment: Anti-proliferative activity, 96 hours; settings: Homo sapiens, DOHH-2, 96 h
# Farage = experiment: Anti-proliferative activity, 96 hours
# SR = experiment: Anti-proliferative activity, 96 hours; settings: Homo sapiens
# KMM-1 = experiment: Anti-proliferative activity, 96 hours; settings: KMM-1, 96 h
# MM.1R = experiment: Anti-proliferative activity, 96 hours
# LP-1 = experiment: Anti-proliferative activity, 96 hours; settings: Homo sapiens, LP-1, 96 h
# IKZF1 [9] = molecular target: T2, IKZF1
# Description: Endogenous expression of IKZF1 in NCIH929 cells was determined by addition of N-terminal HiBiT tag to the NCIH929 cell line using CRISPR-Cas9. Briefly, test compound was added to 384-well plates at a top concentration of 1 μM with 10 points, half log titration in duplicates. NCIH929 cells expressing HiBiT-tagged IKZF1 were seeded into the 384-well plates in RPMI medium containing 10% FBS and 0.05 mM 2-mercaptoethanol at a cell density of 15000 cells per well. Cells treated in the absence of the test compound were the negative control and wells containing media only were the positive control. Following compound treatment, cells were incubated at 37° C. with 5% CO2 for 1.5 hr. HiBiT signal was determined using Nano-Glo™ HiBiT Lytic Assay System (Promega, N3050) and luminescence was acquired on EnVision™ Multilabel Reader (PerkinElmer, Santa Clara, Calif., USA). % IKZF1 remaining was determined by normalizing the signal with positive and negative controls on the same microtiter plate. […] Curve fit and IC50 determination was performed by 4 parametric regression analysis.
# NCIH929 cells expressing HiBiT-tagged IKZF1 were seeded into the 384-well plates in RPMI medium containing 10% FBS and 0.05 mM 2-mercaptoethanol at a cell density of 15000 cells per well. Cells treated in the absence of the test compound were the negative control and wells containing media only were the positive control. Following compound treatment, cells were incubated at 37° C. with 5% CO2 for 1 or 2 hr. HiBiT signal was determined using Nano-Glo™ HiBiT Lytic Assay System (Promega, N3050) and luminescence was acquired on EnVision™ Multilabel Reader (PerkinElmer, Santa Clara, Calif., USA). % IKZF1 remaining was determined by normalizing the signal with positive and negative controls on the same microtiter plate. Curve fit and IC50 determination was performed by 4 parametric regression analysis.
# [10] = all eight multiple myeloma cell lines
# T2 sequence (Q13422 whole entry): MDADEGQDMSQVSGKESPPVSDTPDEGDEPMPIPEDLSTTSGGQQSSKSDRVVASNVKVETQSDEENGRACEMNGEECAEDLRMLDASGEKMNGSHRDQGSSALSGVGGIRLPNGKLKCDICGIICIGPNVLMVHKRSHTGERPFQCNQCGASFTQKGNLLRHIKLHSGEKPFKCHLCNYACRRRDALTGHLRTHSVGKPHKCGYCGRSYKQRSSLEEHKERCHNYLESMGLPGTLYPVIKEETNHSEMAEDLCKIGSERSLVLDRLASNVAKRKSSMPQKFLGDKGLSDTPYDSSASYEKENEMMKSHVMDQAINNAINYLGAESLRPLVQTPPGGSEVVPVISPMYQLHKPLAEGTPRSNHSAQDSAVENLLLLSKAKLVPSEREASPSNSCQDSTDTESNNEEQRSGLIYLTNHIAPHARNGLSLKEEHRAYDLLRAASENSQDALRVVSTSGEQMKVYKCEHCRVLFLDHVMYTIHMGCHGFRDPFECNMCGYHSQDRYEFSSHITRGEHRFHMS
# T2 sequence (Q96SW2 whole entry): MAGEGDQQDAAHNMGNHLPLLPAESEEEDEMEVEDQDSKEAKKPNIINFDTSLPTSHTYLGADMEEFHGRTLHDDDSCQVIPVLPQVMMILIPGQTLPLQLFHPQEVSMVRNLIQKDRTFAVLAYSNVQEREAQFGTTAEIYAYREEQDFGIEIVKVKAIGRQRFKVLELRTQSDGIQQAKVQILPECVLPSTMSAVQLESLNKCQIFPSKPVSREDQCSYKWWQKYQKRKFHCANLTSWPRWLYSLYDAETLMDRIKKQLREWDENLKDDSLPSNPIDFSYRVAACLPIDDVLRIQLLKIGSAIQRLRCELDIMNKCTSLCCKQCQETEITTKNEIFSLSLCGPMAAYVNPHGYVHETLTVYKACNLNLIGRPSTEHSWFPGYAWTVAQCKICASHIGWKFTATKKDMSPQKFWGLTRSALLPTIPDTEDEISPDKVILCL
# T2 sequence (Q16531 2-1140 partner limits assumed): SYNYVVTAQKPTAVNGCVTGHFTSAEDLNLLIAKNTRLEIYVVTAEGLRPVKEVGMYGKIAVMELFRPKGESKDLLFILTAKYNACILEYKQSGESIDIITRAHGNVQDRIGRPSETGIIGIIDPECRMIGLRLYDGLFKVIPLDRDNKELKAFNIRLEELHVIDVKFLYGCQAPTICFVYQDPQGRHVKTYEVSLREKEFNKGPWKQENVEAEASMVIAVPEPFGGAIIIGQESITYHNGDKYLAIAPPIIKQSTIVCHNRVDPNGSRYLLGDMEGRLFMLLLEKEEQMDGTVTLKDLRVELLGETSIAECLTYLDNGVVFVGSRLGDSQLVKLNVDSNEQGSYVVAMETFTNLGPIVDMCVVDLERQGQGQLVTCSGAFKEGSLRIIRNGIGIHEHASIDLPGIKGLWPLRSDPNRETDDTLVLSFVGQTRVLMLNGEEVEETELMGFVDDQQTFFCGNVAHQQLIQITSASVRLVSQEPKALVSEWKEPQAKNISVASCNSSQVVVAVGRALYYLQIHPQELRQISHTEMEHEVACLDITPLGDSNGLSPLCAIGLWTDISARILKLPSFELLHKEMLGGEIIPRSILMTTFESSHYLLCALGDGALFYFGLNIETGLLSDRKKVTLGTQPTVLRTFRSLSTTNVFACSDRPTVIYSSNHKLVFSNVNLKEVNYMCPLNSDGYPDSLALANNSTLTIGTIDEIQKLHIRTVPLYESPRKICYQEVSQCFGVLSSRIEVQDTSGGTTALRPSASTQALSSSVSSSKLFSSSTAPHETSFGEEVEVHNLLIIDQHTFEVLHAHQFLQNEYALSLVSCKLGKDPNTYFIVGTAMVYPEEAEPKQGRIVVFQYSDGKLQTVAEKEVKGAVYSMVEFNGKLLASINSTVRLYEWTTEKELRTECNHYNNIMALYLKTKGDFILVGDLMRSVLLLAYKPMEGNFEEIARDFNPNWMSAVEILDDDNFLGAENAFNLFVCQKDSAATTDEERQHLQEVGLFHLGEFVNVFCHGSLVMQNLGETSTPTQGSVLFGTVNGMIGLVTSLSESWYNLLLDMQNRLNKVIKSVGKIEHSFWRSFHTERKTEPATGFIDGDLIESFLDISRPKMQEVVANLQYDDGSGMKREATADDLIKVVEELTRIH
# T1 sequence (Q8C7D2 whole entry partner): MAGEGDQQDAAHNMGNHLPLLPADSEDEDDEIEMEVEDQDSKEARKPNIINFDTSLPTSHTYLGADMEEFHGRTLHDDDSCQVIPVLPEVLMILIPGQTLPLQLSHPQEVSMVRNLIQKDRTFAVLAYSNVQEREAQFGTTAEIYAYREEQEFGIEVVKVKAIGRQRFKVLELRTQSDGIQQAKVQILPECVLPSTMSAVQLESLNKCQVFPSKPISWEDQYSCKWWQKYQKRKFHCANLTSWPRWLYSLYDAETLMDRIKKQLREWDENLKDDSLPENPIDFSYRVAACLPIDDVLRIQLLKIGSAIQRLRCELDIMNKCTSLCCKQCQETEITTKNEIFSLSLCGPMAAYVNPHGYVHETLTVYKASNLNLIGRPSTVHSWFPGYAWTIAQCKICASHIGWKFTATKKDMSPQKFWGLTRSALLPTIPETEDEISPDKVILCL
# T1 sequence (Q3U1J4 2-1140 partner limits assumed): as the sequence (Q16531 2-1140 partner limits assumed) above, with N417G, A494G, T744S, T1019A counted along it
# T1 sequence (Q03267 whole entry): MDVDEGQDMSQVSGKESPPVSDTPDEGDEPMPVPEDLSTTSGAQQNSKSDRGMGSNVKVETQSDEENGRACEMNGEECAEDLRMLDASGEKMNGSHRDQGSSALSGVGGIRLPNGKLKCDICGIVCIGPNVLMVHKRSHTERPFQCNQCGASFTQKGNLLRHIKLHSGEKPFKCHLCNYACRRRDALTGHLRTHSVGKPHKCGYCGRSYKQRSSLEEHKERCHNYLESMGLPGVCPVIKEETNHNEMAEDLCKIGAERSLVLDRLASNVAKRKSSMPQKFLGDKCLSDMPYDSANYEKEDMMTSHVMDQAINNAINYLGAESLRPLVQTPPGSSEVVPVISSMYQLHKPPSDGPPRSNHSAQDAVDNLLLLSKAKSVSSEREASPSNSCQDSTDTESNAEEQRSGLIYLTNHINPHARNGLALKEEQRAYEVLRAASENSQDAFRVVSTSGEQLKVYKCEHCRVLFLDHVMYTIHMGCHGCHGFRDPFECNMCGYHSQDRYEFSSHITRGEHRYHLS
smiles,measurement,setting,value
"O=C1CC[C@H](N2C(=O)c3cccc4c(Cc5ccc(CN6CCOCC6)cc5)ccc2c34)C(=O)N1 (single isomer, unassigned) [Compound 1]",IC50,[1],13000 pM
same,more potent than pomalidomide,NHL cell lines,more than 100 fold
same,more potent than pomalidomide,[2]; across a panel of cell lines (FIG. 32),2-3 magnitudes
same,IC50,[2]; [10],< 1000 pM
same,maximal inhibition,[2]; [10],greater than 50%
same,more potent than pomalidomide,[2]; eight multiple myeloma cell lines,1000 fold
same,Maximum caspase 3/7 activity,[3]; 72 hours,> 2 fold
same,EC50,"[3]; Homo sapiens, NCI-H929, 72 h, read-out: EC50, caspase 3/7 activity",580 pM
same,IKZF1 degradation,IKZF1 [4],not degraded
same,GI50,NCIH929.1 cells,74.3 pM
same,Statistical Significance Compared to Vehicle,[5]; 30 μg/kg PO daily,0.04
same,Statistical Significance Compared to Vehicle,[5]; 100 μg/kg PO daily,0.04
same,tumor volume,"[5]; Compound 1 10, 30, or 100 μg/kg, pomalidomide 3000 μg/kg, 18 days",decreased
same,Statistical Significance Compared to Vehicle,TMD8 DLBCL tumors [6]; 100 μg/kg PO daily,<0.0001
same,tumor volume,"TMD8 DLBCL tumors [6]; Compound 1 100 μg/kg, pomalidomide 3000 μg/kg, 18 days",decreased
same,Median Survival,"TMD8 DLBCL tumors [7]; Combination of both, PO daily",30
same,Statistical Significance Compared to Vehicle,"TMD8 DLBCL tumors [7]; survival, Logrank, Combination",0.02
same,time of maximal Ikaros degradation,"IKZF1 [8]; 0.001-100 nM, read at 1.5, 3 and 6 hours",6 h
same,Ikaros degradation with proteasome or neddylation inhibitor,"IKZF1 [8]; with bortezomib (10 μM) or MLN-4924 (10 μM), 6 hours",not observed
same,IC50,TMD8,78 pM
same,IC50,SU-DHL-2,4550 pM
same,IC50,DOHH-2,2730 pM
same,IC50,Farage,56300 pM
same,IC50,SR,16200 pM
same,IC50,KMM-1,59 pM
same,IC50,MM.1R,83 pM
same,IC50,LP-1,642 pM
same,DC50,IKZF1 [9]; 2 hour treatment,21 pM
same,Emax,"IKZF1 [9]; NCI-H929, read-out: Mean Emax (%) ± SD, IKZF1 Degradation",22.4 ± 3.1%
same,Dmax,"IKZF1 [9]; NCI-H929, read-out: maximal degradation of IKZF1",> 80%
same,IKZF1 degradation,IKZF1 [9]; after 1 hour treatment,50%
same,potency greater than pomalidomide,IKZF1 [9]; at 2 hr,> 2000 fold
same,degradation of steady state IKZF1,"IKZF1 [9]; multiple myeloma cells, within 1.5 hours at 0.3 nM",> 75%
